# Measured values as given in US20260317337A1, “HETEROCYCLIC COMPOUNDS FOR IMAGING AGGREGATED ALPHA SYNUCLEIN IN THE SYNUCLEINOPATHIES” (THE TRUSTEES OF THE UNIVERSITY OF PENNSYLVANIA, priority 2023, published 2026).
# Biological target: α-synuclein fibrils (Homo sapiens, UniProt P37840)
# Assay: Competitive radioligand binding with [^3H]BF2846 on α-synuclein fibrils
# Details: [^3H]BF2846, α-synuclein fibrils; mean + Sd, n = 3; read-out: α-syn Ki
# Experimental: Competition binding assays were performed with [^3H]BF2846 and [^3H]PIB to measure affinity to Asyn and Aβ. […]
row,SMILES,Ki
1,"CCOC(=O)c1cnc(N2C3CCC2CN(c2ccccn2)C3)nc1N [Compound 1, Ethyl 4-amino-2-(3-(pyridin-2-yl)-3,8-diazabicyclo[3.2.1]octan-8-yl)pyrimidine-5-carboxylate]",11.6 nM
2,"CCOC(=O)c1cnc(N2C3CCC2CN(c2cc4ccccc4cn2)C3)nc1N [Compound 2, Ethyl 4-amino-2-(3-(isoquinolin-3-yl)-3,8-diazabicyclo[3.2.1]octan-8-yl)pyrimidine-5-carboxylate]",26.3 nM
3,"CCOC(=O)c1cnc(N2C3CCC2CN(c2cnc4ccccc4c2)C3)nc1N [Compound 3, Ethyl 4-amino-2-(3-(quinolin-3-yl)-3,8-diazabicyclo[3.2.1]octan-8-yl)pyrimidine-5-carboxylate]",23.3 nM
4,"CCOC(=O)c1cnc(N2CC3CCC(C2)N3c2ccccn2)nc1N [Compound 4, Ethyl 4-amino-2-(8-(pyridin-2-yl)-3,8-diazabicyclo[3.2.1]octan-3-yl)pyrimidine-5-carboxylate]",5.5 nM
5,"CCOC(=O)c1cnc(N2CC3CCC(C2)N3c2cc3ccccc3cn2)nc1N [Compound 5, Ethyl 4-amino-2-(8-(isoquinolin-3-yl)-3,8-diazabicyclo[3.2.1]octan-3-yl)pyrimidine-5-carboxylate]",58.5 nM
6,"CCOC(=O)c1cnc(N2CC3CCC(C2)N3c2cnc3ccccc3c2)nc1N [Compound 6, Ethyl 4-amino-2-(8-(quinolin-3-yl)-3,8-diazabicyclo[3.2.1]octan-3-yl)pyrimidine-5-carboxylate]",9.9 nM
7,"CCOC(=O)c1cnc(N2CCCN(c3ccccn3)CC2)nc1N [Compound 7, Ethyl 4-amino-2-(4-(pyridin-2-yl)-1,4-diazepan-1-yl)pyrimidine-5-carboxylate]",8.9 nM
8,"CCOC(=O)c1cnc(N2CCCN(c3cnc4ccccc4c3)CC2)nc1N [Compound 8, Ethyl 4-amino-2-(4-(quinolin-3-yl)-1,4-diazepan-1-yl)pyrimidine-5-carboxylate]",15.2 nM
9,"CCOC(=O)c1cnc(N2CCN(c3ccccn3)CC2)nc1N [Compound 9, Ethyl 4-amino-2-(4-(pyridin-2-yl)piperazin-1-yl)pyrimidine-5-carboxylate]",4 nM
10,"CCOC(=O)c1cnc(N2CCN(c3nc4ccccc4o3)CC2)nc1N [Compound 10, Ethyl 4-amino-2-(4-(benzo[d]oxazol-2-yl)piperazin-1-yl)pyrimidine-5-carboxylate]",2.5 nM
11,"CCOC(=O)c1cnc(N2CCN(c3nc4ccccc4s3)CC2)nc1N [Compound 11, Ethyl 4-amino-2-(4-(benzo[d]thiazol-2-yl)piperazin-1-yl)pyrimidine-5-carboxylate]",12.9 nM
12,"CCOC(=O)c1cnc(N2C3CCC2CN(c2nc4ccccc4s2)C3)nc1N [Compound 12, Ethyl 4-amino-2-(3-(benzo[d]thiazol-2-yl)-3,8-diazabicyclo[3.2.1]octan-8-yl)pyrimidine-5-carboxylate]",23.4 nM
13,"CCOC(=O)c1cnc(N2CCN(c3cc4ccccc4cn3)CC2)nc1N [Compound 13, Ethyl 4-amino-2-(4-(isoquinolin-3-yl)piperazin-1-yl)pyrimidine-5-carboxylate]",12.1 nM
14,"CCOC(=O)c1cnc(N2CCN(c3cnc4ccccc4c3)CC2)nc1N [Compound 14, Ethyl 4-amino-2-(4-(quinolin-3-yl)piperazin-1-yl)pyrimidine-5-carboxylate]",3.1 nM
15,"CCOC(=O)c1cnc(N2CCN(c3ccc4ccccc4n3)CC2)nc1N [Compound 15, Ethyl 4-amino-2-(4-(quinolin-2-yl)piperazin-1-yl)pyrimidine-5-carboxylate]",10.8 nM
16,"CCOC(=O)c1cnc(N2CCN(c3cnc4ccccc4n3)CC2)nc1N [Compound 16, Ethyl 4-amino-2-(4-(quinoxalin-2-yl)piperazin-1-yl)pyrimidine-5-carboxylate]",2.4 nM
17,"CCOC(=O)c1cnc(N2CCN(c3ccc(OC)cc3)CC2)nc1N [Compound 17, Ethyl 4-amino-2-(4-(4-methoxyphenyl)piperazin-1-yl)pyrimidine-5-carboxylate]",12.8 nM
18,"COc1ccc(NC(=O)c2cnc(N3C4CCC3CN(c3cc5ccccc5cn3)C4)nc2N)cc1 [Compound 19, 4-Amino-2-(3-(isoquinolin-3-yl)-3,8-diazabicyclo[3.2.1]octan-8-yl)-N-(4-methoxyphenyl)pyrimidine-5-carboxamide]",45 nM
19,"COc1ccc(NC(=O)c2cnc(N3CC4CCC(C3)N4c3cc4ccccc4cn3)nc2N)cc1 [Compound 21, 4-Amino-2-(8-(isoquinolin-3-yl)-3,8-diazabicyclo[3.2.1]octan-3-yl)-N-(4-methoxyphenyl)pyrimidine-5-carboxamide]",255 nM
20,"COc1ccc(NC(=O)c2cnc(N3CCN(c4nc5ccccc5o4)CC3)nc2N)cc1 [Compound 26, 4-Amino-2-(4-(benzo[d]oxazol-2-yl)piperazin-1-yl)-N-(4-methoxyphenyl)pyrimidine-5-carboxamide]",6 nM
21,"COc1ccc(NC(=O)c2cnc(N3CCN(c4nc5ccccc5s4)CC3)nc2N)cc1 [Compound 27, 4-Amino-2-(4-(benzo[d]thiazol-2-yl)piperazin-1-yl)-N-(4-methoxyphenyl)pyrimidine-5-carboxamide]",1.1 nM

row,SMILES,Ki
1,"COc1ccc(NC(=O)c2cnc(N3CCN(c4ccc(OC)cc4)CC3)nc2N)cc1 [Compound 33, 4-Amino-N-(4-methoxyphenyl)-2-(4-(4-methoxyphenyl)piperazin-1-yl)pyrimidine-5-carboxamide]",44.5 nM
2,"Nc1nc(N2CCN(c3ccccn3)CC2)ncc1C(=O)Nc1ccc(F)cc1 [Compound 34, 4-Amino-N-(4-fluorophenyl)-2-(4-(pyridin-2-yl)piperazin-1-yl)pyrimidine-5-carboxamide]",10 nM
3,"Nc1nc(N2CCN(c3ccccn3)CC2)ncc1C(=O)OCCO [Compound 37, 2-Hydroxyethyl 4-amino-2-(4-(pyridin-2-yl)piperazin-1-yl)pyrimidine-5-carboxylate]",41.4 nM
4,"Cc1cnc(N2CCN(c3ccccn3)CC2)nc1N [Compound 39, 5-Methyl-2-(4-(pyridin-2-yl)piperazin-1-yl)pyrimidin-4-amine]",84.1 nM
5,"N#Cc1cnc(N2CCN(c3ccccn3)CC2)nc1N [Compound 41, 4-Amino-2-(4-(pyridin-2-yl)piperazin-1-yl)pyrimidine-5-carbonitrile]",7.5 nM
6,"COc1ccc(NC(=O)c2cnc(Cl)nc2)cc1 [Compound 43, 2-Chloro-N-(4-methoxyphenyl)pyrimidine-5-carboxamide]",6.5 nM
7,"COc1ccc(C(=O)Nc2ccc(N3CCC4(CC3)CCN(c3ccccn3)C4)cc2)cc1 [Compound 101, 4-methoxy-N-(4-(2-(pyridin-2-yl)-2,8-diazaspiro[4.5]decan-8-yl)phenyl)benzamide]",21.9 ± 9.7 nM
8,"COc1ccc(C(=O)Nc2ccc(N3C4CCC3CN(c3ccccn3)C4)cc2)cc1 [Compound 103, 4-methoxy-N-(4-(3-(pyridin-2-yl)-3,8-diazabicyclo[3.2.1]octan-8-yl)phenyl)benzamide]",6.1 ± 2.1 nM
9,"COc1ccc(C(=O)Nc2ccc(N3C4CCC3CN(c3cnc5ccccc5n3)C4)cc2)cc1 [Compound 105, 4-methoxy-N-(4-(3-(quinoxalin-2-yl)-3,8-diazabicyclo[3.2.1]octan-8-yl)phenyl)benzamide]",47.6 ± 14 nM
10,"COc1ccc(C(=O)Nc2ccc(N3CCCN(c4ccccn4)CC3)cc2)cc1 [Compound 107, 4-methoxy-N-(4-(4-(pyridin-2-yl)-1,4-diazepan-1-yl)phenyl)benzamide]",8.7 ± 0.6 nM
11,"COc1ccc(C(=O)Nc2ccc(N3CCN(c4ccccn4)CC3)cn2)cc1 [Compound 109, 4-methoxy-N-(5-(4-(pyridin-2-yl)piperazin-1-yl)pyridin-2-yl)benzamide]",5 ± 0.34 nM
12,"COc1ccc(C(=O)Nc2ccc(N3C4CCC3CN(c3ccccn3)C4)cn2)cc1 [Compound 110, 4-methoxy-N-(5-(3-(pyridin-2-yl)-3,8-diazabicyclo[3.2.1]octan-8-yl)pyridin-2-yl)benzamide]",44.1 ± 32 nM
13,"COc1ccc(C(=O)Nc2ccc(N3CC(OC)C3)cc2)cc1 [Compound 115, 4-methoxy-N-(4-(3-methoxyazetidin-1-yl)phenyl)benzamide]",28.6 ± 33 nM
14,"O=C(Nc1ccc(N2C3CCC2CN(c2ccccn2)C3)cc1)c1ccc(OCCF)cc1 [Compound 116, 4-(2-fluoroethoxy)-N-(4-(3-(pyridin-2-yl)-3,8-diazabicyclo[3.2.1]octan-8-yl)phenyl)benzamide]",12.7 ± 2.3 nM
15,"COc1ccc(NC(=O)c2cnc(N3CCN(c4cccnc4)CC3)nc2N)cc1 [Compound 118, 4-Amino-N-(4-methoxyphenyl)-2-(4-(pyridin-3-yl)piperazin-1-yl)pyrimidine-5-carboxamide]",142 nM
16,"CCOC(=O)c1cnc(N2CCN(c3ncccn3)CC2)nc1N [Compound 119, Ethyl 4-amino-2-(4-(pyrimidin-2-yl)piperazin-1-yl)pyrimidine-5-carboxylate]",19.5 nM
17,"CCOC(=O)c1cnc(N2CCN(c3cnccn3)CC2)nc1N [Compound 121, Ethyl 4-amino-2-(4-(pyrazin-2-yl)piperazin-1-yl)pyrimidine-5-carboxylate]",8.4 nM
18,"CCOC(=O)c1cnc(N2CCN(c3nccs3)CC2)nc1N [Compound 123, Ethyl 4-amino-2-(4-(thiazol-2-yl)piperazin-1-yl)pyrimidine-5-carboxylate]",51.1 nM
19,"COc1ccc(NC(=O)c2cnc(N3CCN(c4nccs4)CC3)nc2N)cc1 [Compound 124, 4-Amino-N-(4-methoxyphenyl)-2-(4-(thiazol-2-yl)piperazin-1-yl)pyrimidine-5-carboxamide]",29.9 nM
20,"COc1ccc(NC(=O)c2cnc(N3CC4CCC(C3)N4c3cnc4ccccc4c3)nc2N)cc1 [Compound 126, 4-Amino-N-(4-methoxyphenyl)-2-(8-(quinolin-3-yl)-3,8-diazabicyclo[3.2.1]octan-3-yl)pyrimidine-5-carboxamide]",522 nM
21,"Nc1nc(N2CCN(c3nc4ccccc4o3)CC2)ncc1C(=O)Nc1ccc(OCCF)cc1 [Compound 133, 4-Amino-2-(4-(benzo[d]oxazol-2-yl)piperazin-1-yl)-N-(4-(2-fluoroethoxy)phenyl)pyrimidine-5-carboxamide]",1.26 nM
